Laboratory results taken from patent publication US12281225B2, “Process for preparing stable polymers containing vinylimidazole” (BASF SE, priority 2018, dated 2025).

How the values were obtained:
[1] = tested on: Bacteria: Escherichia coli, Staphylococcus aureus, Pseudomonas aeruginosa, Pseudomonas putida, Burkholderia cepacia, Alcaligenes faecalis; assay: Preservation test with periodic inoculation, bacteria assessment; type: cell-based; details: sample stored 60 d at 40° C.
Summary of the method: (§1)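 Semiquantitative growth scores (−− no growth to ++ strong growth) from weekly agar streaks incubated 3 days at 25 °C. Preserved polymer samples got four weekly 0.5 ml inoculations (titer 10^9 organisms/ml), the first two days after preservative addition; testing began fresh and after 60-day storage at 40 °C.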

[2] = Analysis of active substance: preservative concentration before and after storage in VI-containing polymer solution; type: physicochemical; details: for active-substance concentration, 0 d, RT: before storage; for active-substance concentration, 14 d, 40° C.: storage 14 d at 40° C.; for active-substance concentration, 28 d, 40° C.: storage 28 d at 40° C.; for active-substance concentration, 60 d 40° C.: storage 60 d at 40° C.
Summary of the method: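 Preservatives (MIT, BIT, CMIT, OIT, DCOIT, iodopropynyl butyl carbamate) in aqueous vinylpyrrolidone–vinylimidazole copolymer solution quantified after dilution by isocratic RP18 chromatography with UV detection, using an acid-methanol eluent.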

[3] = Iodine color number according to DIN 6162:2014-09; type: physicochemical
[4] = tested on: Yeast: Candida albicans, Candida valida, Rhodotorula rura, Saccharomyces cerevisiae; assay: Preservation test with periodic inoculation, yeast assessment; type: cell-based; details: for Start sample measurement, yeast assess., 4th inoculation: freshly formulated; for 60 d 40° C., yeast assess., 4th inoculation: sample stored 60 d at 40° C.
Summary of the method: as §1

[5] = Polymer P5 (HP56) with stabilizer

- active-substance concentration, 0 d, RT ([2]; in Polymer P1): 300 ppm
- active-substance concentration, 14 d, 40° C. ([2]; in Polymer P1): 244 ppm
- active-substance concentration, 28 d, 40° C. ([2]; in Polymer P1): 183 ppm
- active-substance concentration, 60 d 40° C. ([2]; in Polymer P1): 94 ppm
- active-substance concentration, 0 d, RT ([2]; in Polymer P2): 300 ppm
- active-substance concentration, 14 d, 40° C. ([2]; in Polymer P2): 244 ppm
- active-substance concentration, 28 d, 40° C. ([2]; in Polymer P2): 195 ppm
- active-substance concentration, 60 d 40° C. ([2]; in Polymer P2): 109 ppm
- active-substance concentration, 0 d, RT ([2]; in Polymer P3): 300 ppm
- active-substance concentration, 14 d, 40° C. ([2]; in Polymer P3): 232 ppm
- active-substance concentration, 28 d, 40° C. ([2]; in Polymer P3): 183 ppm
- active-substance concentration, 60 d 40° C. ([2]; in Polymer P3): 112 ppm
- active-substance concentration, 0 d, RT ([2]; in Polymer P4): 300 ppm
- active-substance concentration, 14 d, 40° C. ([2]; in Polymer P4): 246 ppm
- active-substance concentration, 28 d, 40° C. ([2]; in Polymer P4): 198 ppm
- active-substance concentration, 60 d 40° C. ([2]; in Polymer P4): 123 ppm
- active-substance concentration, 0 d, RT ([2]; in Polymer P5 (HP56)): 300 ppm
- active-substance concentration, 14 d, 40° C. ([2]; in Polymer P5 (HP56)): 230 ppm
- active-substance concentration, 28 d, 40° C. ([2]; in Polymer P5 (HP56)): 180 ppm
- active-substance concentration, 60 d 40° C. ([2]; in Polymer P5 (HP56)): 94 ppm
- active-substance concentration, 0 d, RT ([2]; in Polymer P6): 300 ppm
- active-substance concentration, 14 d, 40° C. ([2]; in Polymer P6): 222 ppm
- active-substance concentration, 28 d, 40° C. ([2]; in Polymer P6): 184 ppm
- active-substance concentration, 60 d 40° C. ([2]; in Polymer P6): 98 ppm
- active-substance concentration, 0 d, RT ([2]; in Polymer P7): 300 ppm
- active-substance concentration, 14 d, 40° C. ([2]; in Polymer P7): 228 ppm
- active-substance concentration, 28 d, 40° C. ([2]; in Polymer P7): 189 ppm
- active-substance concentration, 60 d 40° C. ([2]; in Polymer P7): 106 ppm
- active-substance concentration, 0 d, RT ([2]; in Polymer P8): 300 ppm
- active-substance concentration, 14 d, 40° C. ([2]; in Polymer P8): 230 ppm
- active-substance concentration, 28 d, 40° C. ([2]; in Polymer P8): 180 ppm
- active-substance concentration, 60 d 40° C. ([2]; in Polymer P8): 94 ppm
- active-substance concentration, 0 d, RT ([2]; in Polymer P9): 300 ppm
- active-substance concentration, 14 d, 40° C. ([2]; in Polymer P9): 219 ppm
- active-substance concentration, 28 d, 40° C. ([2]; in Polymer P9): 165 ppm
- active-substance concentration, 60 d 40° C. ([2]; in Polymer P9): 87 ppm
- Iodine color number, 60 d 40° C. ([3]; Polymer P1 with stabilizer): 6.2
- Iodine color number, start ([3]; Polymer P1 with stabilizer): 3.0
- Iodine color number, 60 d 40° C. ([3]; Polymer P2 with stabilizer): 8.1
- Iodine color number, start ([3]; Polymer P2 with stabilizer): 3.1
- Iodine color number, 60 d 40° C. ([3]; Polymer P3 with stabilizer): 9.1
- Iodine color number, start ([3]; Polymer P3 with stabilizer): 3.4
- Iodine color number, 60 d 40° C. ([3]; Polymer P4 with stabilizer): 8.9
- Iodine color number, start ([3]; Polymer P4 with stabilizer): 3.4
- Iodine color number, 60 d 40° C. [3, 5]: 8.7
- Iodine color number, start [3, 5]: 3.6
- Iodine color number, 60 d 40° C. ([3]; Polymer P6 with stabilizer): 8.4
- Iodine color number, start ([3]; Polymer P6 with stabilizer): 3.6
- Iodine color number, 60 d 40° C. ([3]; Polymer P7 with stabilizer): 8.4
- Iodine color number, start ([3]; Polymer P7 with stabilizer): 3.6
- Iodine color number, 60 d 40° C. ([3]; Polymer P8 with stabilizer): 8.9
- Iodine color number, start ([3]; Polymer P8 with stabilizer): 3.4
- Iodine color number, 60 d 40° C. ([3]; Polymer P9 with stabilizer): 14.7
- Iodine color number, start ([3]; Polymer P9 with stabilizer): 3.9
Compound: CCCCCCCCn1sc(Cl)c(Cl)c1=O [DCOIT, dichloroctylisothiazolinone]
- 60 d 40° C., bact. assess., 4th inoculation ([1]; Polymer P1): 0 (moderate growth, max. 400 colonies)
- 60 d 40° C., bact. assess., 4th inoculation ([1]; Polymer P2): +
- 60 d 40° C., bact. assess., 4th inoculation ([1]; Polymer P3): +
- 60 d 40° C., bact. assess., 4th inoculation ([1]; Polymer P4): +
- 60 d 40° C., bact. assess., 4th inoculation ([1]; Polymer P5 (HP56)): +
- 60 d 40° C., bact. assess., 4th inoculation ([1]; Polymer P6): +
- 60 d 40° C., bact. assess., 4th inoculation ([1]; Polymer P7): +
- 60 d 40° C., bact. assess., 4th inoculation ([1]; Polymer P8): +
- 60 d 40° C., bact. assess., 4th inoculation ([1]; Polymer P9): ++
- Start sample measurement, yeast assess., 4th inoculation ([4]; Polymer P1): − (slight growth, max. 100 colonies)
- 60 d 40° C., yeast assess., 4th inoculation ([4]; Polymer P1): +
- Start sample measurement, yeast assess., 4th inoculation ([4]; Polymer P2): − (slight growth, max. 100 colonies)
- 60 d 40° C., yeast assess., 4th inoculation ([4]; Polymer P2): +
- Start sample measurement, yeast assess., 4th inoculation ([4]; Polymer P3): − (slight growth, max. 100 colonies)
- 60 d 40° C., yeast assess., 4th inoculation ([4]; Polymer P3): ++
- Start sample measurement, yeast assess., 4th inoculation ([4]; Polymer P4): − (slight growth, max. 100 colonies)
- 60 d 40° C., yeast assess., 4th inoculation ([4]; Polymer P4): ++
- Start sample measurement, yeast assess., 4th inoculation ([4]; Polymer P5 (HP56)): − (slight growth, max. 100 colonies)
- 60 d 40° C., yeast assess., 4th inoculation ([4]; Polymer P5 (HP56)): ++
- Start sample measurement, yeast assess., 4th inoculation ([4]; Polymer P6): − (slight growth, max. 100 colonies)
- 60 d 40° C., yeast assess., 4th inoculation ([4]; Polymer P6): +
- Start sample measurement, yeast assess., 4th inoculation ([4]; Polymer P7): − (slight growth, max. 100 colonies)
- 60 d 40° C., yeast assess., 4th inoculation ([4]; Polymer P7): ++
- Start sample measurement, yeast assess., 4th inoculation ([4]; Polymer P8): − (slight growth, max. 100 colonies)
- 60 d 40° C., yeast assess., 4th inoculation ([4]; Polymer P8): 0 (moderate growth, max. 400 colonies)
- Start sample measurement, yeast assess., 4th inoculation ([4]; Polymer P9): − (slight growth, max. 100 colonies)
- 60 d 40° C., yeast assess., 4th inoculation ([4]; Polymer P9): ++
